Consider nine compounds from PubChem BioAssay (NCI).

Structures are written as SMILES. “And” between values parts separate entries of the source, which are not always exact repeats. Identical values can stand only once.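 Dose response: 5 concentrations. Exposure: 48 h. Format: 96-well plates. Endpoint: linear interpolation; highest concentration if not reached. The concentration for 50% growth inhibition is given as GI50. TGI: concentration producing complete growth inhibition.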

Test systems include ACHN renal; BT-549 breast; IGROV1 ovarian; MALME-3M melanoma; NCI-H23 lung; NCI-H460 lung; NCI/ADR-RES ovarian; OVCAR-8 ovarian; SF-268 CNS; TK-10 renal.
Common to all, as to assay: NCI tumour cell line growth inhibition, 48 h

Regarding `CCCCCCCCCCCCOC1C(C(COC2OC(C3COC(C)(C)O3)C3OC(C)(C)OC23)NC(=O)Nc2ccc(C(=O)O)cc2)OC2OC(C)(C)OC21` (configuration not stated), the GI50 in the experiment on ACHN renal was 3.56 µM; in the experiment on BT-549 breast, 1.79 µM; in the experiment with IGROV1 ovarian, 2.11 µM; in the experiment with MALME-3M melanoma, 2.88 µM; in the experiment on NCI-H23 lung, 2.64 µM; in the experiment on NCI-H460 lung, 2.45 µM. Moreover, the GI50 was 10.9 µM in the experiment on NCI/ADR-RES ovarian, 3.13 µM in the experiment with OVCAR-8 ovarian, 3.37 µM in the experiment with SF-268 CNS and 4.13 µM with TK-10 renal. The TGI in the experiment on ACHN renal worked out at 12.2 µM; with BT-549 breast, 4.59 µM; in the experiment with IGROV1 ovarian it was 4.87 µM; in the experiment with MALME-3M melanoma, 6.91 µM; with NCI-H23 lung, 6.83 µM; in the experiment with NCI-H460 lung, 5.89 µM. In addition, the TGI in the experiment with NCI/ADR-RES ovarian came to 24.8 µM; in the experiment with OVCAR-8 ovarian, 12 µM; in the experiment on SF-268 CNS, 13.7 µM; in the experiment on TK-10 renal it was 14.4 µM.

With `Cn1nc(N)c2cc([C@@H]3Nc4ccc5[nH]ncc5c4[C@H]4C5CCC(C5)[C@@H]34)ccc21` (some centres not stated), the GI50 in the experiment on ACHN renal was 0.593 µM; with BT-549 breast, 1.01 µM; in the experiment with IGROV1 ovarian, 0.756 µM; with MALME-3M melanoma, 0.442 µM; in the experiment on NCI-H23 lung, 0.643 µM; in the experiment on NCI-H460 lung, 0.402 µM. The GI50 with NCI/ADR-RES ovarian is 0.4 µM; in the experiment on OVCAR-8 ovarian, 0.979 µM; with SF-268 CNS, 1.32 µM; in the experiment with TK-10 renal it was 19.6 µM. Also, the TGI in the experiment with ACHN renal came out at 41.1 µM; with BT-549 breast, 12.3 µM; in the experiment on IGROV1 ovarian it was 22.8 µM; with MALME-3M melanoma, 32.7 µM; in the experiment on NCI-H23 lung, 17.4 µM; with NCI-H460 lung, 11.6 µM. The TGI in the experiment on NCI/ADR-RES ovarian was 10 µM; with OVCAR-8 ovarian, above 88.2 µM; in the experiment on SF-268 CNS it was 41 µM; in the experiment with TK-10 renal it was above 100 µM.

`[Cl][Hg][c]1cc(Br)cc(Br)c1`: the GI50 with ACHN renal was 3.83 µM; in the experiment on BT-549 breast, 1.95 µM; in the experiment on IGROV1 ovarian it was 1.47 µM; in the experiment with MALME-3M melanoma, 1.69 µM; in the experiment on NCI-H23 lung it was 2.65 µM; in the experiment with NCI-H460 lung it was 2.05 µM. Besides, the GI50 in the experiment with NCI/ADR-RES ovarian was 3.07 µM; in the experiment on OVCAR-8 ovarian, 2.78 µM; with SF-268 CNS, 1.76 µM; in the experiment with TK-10 renal, 2.9 µM. In addition, the TGI in the experiment with ACHN renal turned out to be 14.8 µM; in the experiment with BT-549 breast it was 5.47 µM; in the experiment with IGROV1 ovarian it was 3.41 µM; in the experiment on MALME-3M melanoma it was 3.28 µM; with NCI-H23 lung, 9.02 µM; in the experiment on NCI-H460 lung it was 7.61 µM. Besides, the TGI with NCI/ADR-RES ovarian is 13.5 µM; in the experiment with OVCAR-8 ovarian it was 7.64 µM; in the experiment with SF-268 CNS, 4.28 µM; with TK-10 renal, 6.35 µM.

Take `CCC(C)n1ncn(-c2ccc(N3CCN(c4ccc(OCC5COC(Cn6cncn6)(c6ccc(Cl)cc6Cl)O5)cc4)CC3)cc2)c1=O` (configuration not stated): the GI50 in the experiment with ACHN renal is 21.7 µM; with BT-549 breast, 3.6 µM; with IGROV1 ovarian, 82.5 µM; in the experiment with MALME-3M melanoma, 46.2 µM; in the experiment with NCI-H23 lung it was 27.8 µM; in the experiment on NCI-H460 lung, 9.62 µM. Further, the GI50 in the experiment on NCI/ADR-RES ovarian was 26.1 µM; in the experiment with OVCAR-8 ovarian, 20.2 µM; with SF-268 CNS it was 33.6 µM; in the experiment with TK-10 renal, 28.6 µM. The TGI in the experiment with ACHN renal, in the experiment on BT-549 breast, in the experiment on IGROV1 ovarian, in the experiment with MALME-3M melanoma, in the experiment with NCI-H23 lung and in the experiment on NCI-H460 lung was above 100 µM throughout. Besides, the TGI in the experiment with NCI/ADR-RES ovarian, in the experiment on OVCAR-8 ovarian, in the experiment on SF-268 CNS and in the experiment on TK-10 renal was above 100 µM each time.

Turning to `O=C(Nc1nc2ccc(C(F)(F)F)cc2s1)c1cc(Cl)ccc1O`, the GI50 in the experiment on ACHN renal was 0.894 µM; in the experiment with BT-549 breast, 0.89 µM; in the experiment on IGROV1 ovarian it was 0.621 µM; in the experiment with MALME-3M melanoma it was 0.626 µM; in the experiment with NCI-H23 lung, 0.367 µM; with NCI-H460 lung, 0.414 µM. Further, the GI50 with NCI/ADR-RES ovarian was 0.841 µM; with OVCAR-8 ovarian it was 1.12 µM; in the experiment on SF-268 CNS, 0.497 µM; in the experiment with TK-10 renal it was 0.76 µM. Further, the TGI with ACHN renal was above 100 µM; with BT-549 breast it was 7.77 µM; with IGROV1 ovarian, above 100 µM; in the experiment on MALME-3M melanoma, 4.48 µM; with NCI-H23 lung, 9.53 µM; in the experiment with NCI-H460 lung, above 100 µM. Besides, the TGI with NCI/ADR-RES ovarian is above 100 µM; in the experiment with OVCAR-8 ovarian, above 100 µM; in the experiment with SF-268 CNS it was above 100 µM; in the experiment on TK-10 renal it was 34 µM.

Turning to `O=C(O)C1C2C=CC(O2)C1C(=O)NCc1ccccn1` (configuration not stated), the TGI with ACHN renal, with BT-549 breast, in the experiment with IGROV1 ovarian, in the experiment on MALME-3M melanoma, with NCI-H23 lung and in the experiment on NCI-H460 lung was above 100 µM in each case. In addition, the TGI in the experiment with NCI/ADR-RES ovarian, in the experiment with OVCAR-8 ovarian, in the experiment with SF-268 CNS and in the experiment on TK-10 renal was above 100 µM each time.

Take `C=C(c1nc2ccc(Cl)cc2[nH]c1=O)C(O)c1ccc(C(O)C(=O)c2nc3ccc(Cl)cc3[nH]c2=O)cc1` (configuration not stated): the TGI in the experiment on ACHN renal, in the experiment with BT-549 breast, in the experiment with IGROV1 ovarian, in the experiment with MALME-3M melanoma, in the experiment on NCI-H23 lung and with NCI-H460 lung was above 100 µM each time. Besides, the TGI in the experiment with NCI/ADR-RES ovarian, with OVCAR-8 ovarian, with SF-268 CNS and in the experiment on TK-10 renal was above 100 µM in each case.

`O=C1c2cccc(NCCCNCCO)c2C(=O)c2cccc(NCCCNCCO)c21`: the TGI in the experiment with ACHN renal is 5.71 µM and 10.4 µM; with BT-549 breast it was 4.21 µM; with IGROV1 ovarian, 8.22 µM and 9.3 µM; in the experiment on MALME-3M melanoma, 3.94 µM and 10.4 µM; in the experiment with NCI-H23 lung, 6.08 µM and 4.38 µM; in the experiment on NCI-H460 lung, 4 µM and 4.23 µM. In addition, the TGI was 28.6 µM in the experiment with NCI/ADR-RES ovarian; 4.57 µM and 5.66 µM in the experiment with OVCAR-8 ovarian; 2.82 µM and 4.69 µM in the experiment with SF-268 CNS; 8.6 µM and 13.4 µM in the experiment with TK-10 renal. For the same compound, the GI50 in the experiment with MALME-3M melanoma was 2.06 µM and 4.18 µM; in the experiment on SF-268 CNS, 0.58 µM and 1.5 µM.

As for `COc1ccc(C(C)=O)cc1N1C(=O)C2C(C1=O)C1(c3ccccc3)C(=O)C2(c2ccccc2)C(c2ccc(C)cc2)=C1c1ccc(C)cc1` (configuration not stated), the GI50 with ACHN renal, in the experiment on BT-549 breast, with IGROV1 ovarian, in the experiment on MALME-3M melanoma, in the experiment with NCI-H23 lung and in the experiment with NCI-H460 lung was above 100 µM in each case. Further, the GI50 in the experiment on NCI/ADR-RES ovarian, in the experiment on OVCAR-8 ovarian, in the experiment with SF-268 CNS and in the experiment on TK-10 renal was above 100 µM throughout. For the same compound, the TGI in the experiment on ACHN renal, in the experiment on BT-549 breast, in the experiment with IGROV1 ovarian, with MALME-3M melanoma, in the experiment with NCI-H23 lung and in the experiment with NCI-H460 lung was above 100 µM throughout. Moreover, the TGI in the experiment with NCI/ADR-RES ovarian, in the experiment on OVCAR-8 ovarian, with SF-268 CNS and in the experiment with TK-10 renal was above 100 µM throughout.
